Source: patent US20240383882A1 (Ecstasy LLC, priority 2020, published 2024)
Where a name gives a salt, the structure may show the parent alone. Read-outs that look alike come from different tables or passages of the source.

Tested on: male C57BL/6 mice
Assay: 55° C. warm-water tail-flick test (antinociception)
Assay type: in vivo
Settings: Mus musculus
Outline: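 Subcutaneous dosing, then tail immersion in 55° C water at 30–120 min; latency normalized as 100×(test−control)/(20−control), using a 20 s cutoff, after excluding mice not responding within 2 s at baseline. Values expressed as ED50 (mg/kg).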

[1] = half maximal effective dose in mice, using one of: warm water tail-flick test, spared nerve injury, chronic constriction injury, or Complete Freund's adjuvant induced inflammatory pain (not stated which per compound), read-out: Biological Activity (ED50)
[2] = sc, 0.5 h, compounds of Table I, s.c., 30 min, 55° C. water, configuration tested as in Table II, read-out: ED50 (mg/kg) at 30 min on C57BL/6 mice in Warm-water Tail-flick Test

Row | Compound | ED50 [1] [mg/kg] | other results
1 | CC(C)(c1ccccn1)N1CC[C@@](CCc2ccc(C#N)cc2)(C(=O)C(F)(F)F)C1 [Compound 100, (R)-4-(2-(1-(2-(pyridin-2-yl)propan-2-yl)-3-(2,2,2-trifluoroacetyl)pyrrolidin-3-yl)ethyl) benzonitrile] | > 50 | 
2 | CC(C)(c1ccccn1)N1CC[C@@](CCc2ccc(C#N)cc2)(c2nn[nH]n2)C1 [Compound 182, (R)-4-(2-(1-(2-(pyridin-2-yl)propan-2-yl)-3-(2H-tetrazol-5-yl)pyrrolidin-3-yl)ethyl) benzonitrile] | > 50 | 
3 | CC(C)(c1ccc(Cl)cc1)N1CC[C@](CCc2ccc(S(C)(=O)=O)cc2)(C(O)C(F)(F)F)C1 (single isomer, unassigned) [Compound 98, (R or S)-1-((S)-1-(2-(4-chlorophenyl)propan-2-yl)-3-(4-(methylsulfonyl)phenethyl)pyrrolidin-3-yl)-2,2,2-trifluoroethan-1-ol] | ≤ 30 | 
4 | CC(C)(c1ccc(F)cn1)N1CC[C@](CCc2ccc(C#N)cc2)(C(O)C(F)(F)F)C1 (single isomer, unassigned) [Compound 229, 4-(2-((S)-1-(2-(5-fluoropyridin-2-yl)propan-2-yl)-3-((R or S)-2,2,2-trifluoro-1-hydroxyethyl)pyrrolidin-3-yl)ethyl) benzonitrile] | > 50 | 
5 | Cc1cccc(C(C)(C)N2CC[C@@](CCc3ccc(C#N)cc3)(C(=O)O)C2)n1 [Compound 145, (R)-3-(4-cyanophenethyl)-1-(2-(6-methylpyridin-2-yl)propan-2-yl)pyrrolidine-3-carboxylic acid] | > 50 | 
6 | CC(C)(c1ccccn1)N1CC[C@@](CCc2ccc(C#N)cc2)(C(=O)NC2(C(F)(F)F)CC2)C1 [Compound 201, (R)-3-(4-cyanophenethyl)-1-(2-(pyridin-2-yl)propan-2-yl)-N-(1-(trifluoromethyl)cyclopropyl) pyrrolidine-3-carboxamide] | ≤ 30 | 
7 | CC(C)(c1ccccn1)N1CC[C@@](CCc2ccc(C#N)cc2)(C(C)(C)O)C1 [(R)-4-(2-(3-(2-hydroxypropan-2-yl)-1-(2-(pyridin-2-yl)propan-2-yl)pyrrolidin-3-yl)ethyl) benzonitrile] | > 50 | 
8 | CCOC[C@]1(CCc2ccc(F)cc2)CCN(Cc2cnc(OC)cc2C#N)C1 [Compound 2, (R)-5-((3-(ethoxymethyl)-3-(4-fluorophenethyl)pyrrolidin-1-yl)methyl)-2-methoxy-isonicotino nitrile] | ≤ 30 | 
9 | Cc1ccc(C(C)(C)N2CCC(CCc3ccc(F)s3)(CNS(=O)(=O)O)C2)cn1 (single isomer, unassigned) [Compound 322] |  | ED50 [2]: ≤ 30 mg/kg
10 | Cc1ccc(C(C)(C)N2CC[C@](CO)(CCc3ccc(F)cc3)C2)cn1 [Compound 15, (R)-(3-(4-fluorophenethyl)-1-(2-(6-methylpyridin-3-yl)propan-2-yl)pyrrolidin-3-yl)methanol] | ≤ 30 | 
11 | CC(C)(c1ccsc1)N1CCC(CCc2cccs2)(C2CCCO2)C1 (single isomer, unassigned) [Compound 24] |  | ED50 (sc, 0.5 h, compounds of Table III, s.c., 30 min, 55° C. water, configuration tested as in Table IV, read-out: ED50 (mg/kg) at 30 min on C57BL/6 mice in Warm-water Tail-flick Test (same as Table II)): ≤ 30 mg/kg
12 | CC(C)(c1ccc(Cl)cc1)N1CC[C@@](CCc2ccc(S(C)(=O)=O)cc2)(COCc2ccccc2)C1 [Compound 37, (R)-3-((benzyloxy)methyl)-1-(2-(4-chlorophenyl)propan-2-yl)-3-(4-(methylsulfonyl)phenethyl) pyrrolidine] | > 50 | 
13 | CC(C)(c1ccccn1)N1CC[C@@](CCc2ccc3ccoc3c2)(c2nn[nH]n2)C1 [Compound 183, (R)-2-(2-(3-(2-(benzofuran-6-yl)ethyl)-3-(2H-tetrazol-5-yl)pyrrolidin-1-yl)propan-2-yl)pyridine] | > 50 | 
14 | CC(C)(c1ccccn1)N1CC[C@@](CCc2ccc(C#N)cn2)(C(O)C(F)(F)F)C1 (single isomer, unassigned) [Compound 120, 6-(2-((R)-1-(2-(pyridin-2-yl)propan-2-yl)-3-((R or S)-2,2,2-trifluoro-1-hydroxyethyl)pyrrolidin-3-yl)ethyl) nicotinonitrile] | > 50 | 
15 | CCOC[C@]1(CCc2cccc(C#N)c2)CCN(C(C)(C)c2ccccn2)C1 [Compound 128, (R)-3-(2-(3-(ethoxymethyl)-1-(2-(pyridin-2-yl)propan-2-yl)pyrrolidin-3-yl)ethyl) benzonitrile] | > 50 | 
16 | CCOC(C)C1(CCc2cccs2)CCN(C(C)(C)c2ccc(C)nc2)C1 (single isomer, unassigned) [Compound 5] |  | ED50 [2]: ≤ 30 mg/kg
17 | CC(C)(c1ccccn1)N1CC[C@@](CCc2ccc3ccoc3c2)(c2c[nH]nn2)C1 [Compound 191, (R)-2-(2-(3-(2-(benzofuran-6-yl)ethyl)-3-(1H-1,2,3-triazol-4-yl)pyrrolidin-1-yl)propan-2-yl)pyridine] | > 50 | 
18 | CCOC(C(F)(F)F)(C(F)(F)F)[C@]1(CCc2ccc(C#N)s2)CCN(C(C)(C)c2ccccn2)C1 [Compound 161, (R)-5-(2-(3-(2-ethoxy-1,1,1,3,3,3-hexafluoropropan-2-yl)-1-(2-(pyridin-2-yl)propan-2-yl)pyrrolidin-3-yl)ethyl)thiophene-2-carbonitrile] | > 50 | 
19 | CC(C)(c1ccccn1)N1CC[C@@](CCc2ccc(S(C)(=O)=O)cc2)(C2CCCO2)C1 (single isomer, unassigned) [Compound 67] | > 50 | 
20 | CC(C)(c1ccccn1)N1CC[C@@](CCc2ccc(C#N)cn2)(COCc2ccccc2)C1 [Compound 113, (R)-6-(2-(3-((benzyloxy)methyl)-1-(2-(pyridin-2-yl)propan-2-yl)pyrrolidin-3-yl)ethyl) nicotinonitrile] | > 50 | 
21 | CCOCC1(CCn2c(=O)[nH]c3cnccc32)CCN(C(C)(C)c2ccc(C)nc2)C1 (centres unmarked) [Compound 92, 1-(2-(3-(ethoxymethyl)-1-(2-(6-methylpyridin-3-yl)propan-2-yl)pyrrolidin-3-yl)ethyl)-1,3-dihydro-2H-imidazo[4,5-c]pyridin-2-one citrate] |  | ED50 [2]: ≤ 30 mg/kg
22 | CC1(C)COC1[C@]1(CCc2ccc(C#N)cc2)CCN(Cc2ncc(Cl)s2)C1 (single isomer, unassigned) [Compound 211, 4-(2-((R)-1-((5-chlorothiazol-2-yl)methyl)-3-((R or S)-3,3-dimethyloxetan-2-yl)pyrrolidin-3-yl)ethyl)benzonitrile] | ≤ 30 | 
23 | CCOC[C@@]1(CCc2ccc(S(C)(=O)=O)cc2)CCN(C(C)(C)c2ccccc2)C1 [Compound 200, (S)-3-(ethoxymethyl)-3-(4-(methylsulfonyl)phenethyl)-1-(2-phenylpropan-2-yl)pyrrolidine] | ≤ 30 | 
24 | CC(C)(c1ccccn1)N1CC[C@@](CCc2ccc3nonc3c2)(COCc2ccccc2)C1 [Compound 163, (R)-5-(2-(3-((benzyloxy)methyl)-1-(2-(pyridin-2-yl)propan-2-yl)pyrrolidin-3-yl)ethyl)benzo[c] [1,2,5]oxadiazole] | > 50 | 
25 | Cc1ccc(C(C)(C)N2CCC(CCc3ccc(F)s3)(c3ncc(C(C)(C)C)[nH]3)C2)cn1 (single isomer, unassigned) [Compound 282] |  | ED50 [2]: ≤ 30 mg/kg
26 | CCOC(C(F)(F)F)(C(F)(F)F)[C@]1(CCc2ccc(C#N)cc2)CCN(C(C)(C)c2ccccn2)C1 [Compound 137, (R)-4-(2-(3-(2-ethoxy-1,1,1,3,3,3-hexafluoropropan-2-yl)-1-(2-(pyridin-2-yl)propan-2-yl)pyrrolidin-3-yl)ethyl) benzonitrile] | > 50 | 
27 | Cc1ccc(C(C)(C)N2CCC(CCc3ccc(F)s3)(C(NS(C)(=O)=O)c3ccccn3)C2)cn1 (single isomer, unassigned) [Compound 319] |  | ED50 [2]: ≤ 30 mg/kg
28 | CCOC[C@]1(CCc2ccc(F)cc2)CCN(Cc2cccnc2C(N)=O)C1 [Compound 5] | > 50 | 
29 | Cc1ccnc(C)c1CN1CC[C@@](CCc2ccc(C#N)cc2)(C(O)C(F)(F)F)C1 (single isomer, unassigned) [Compound 227, 4-(2-((R)-1-((2,4-dimethylpyridin-3-yl)methyl)-3-((R or S)-2,2,2-trifluoro-1-hydroxyethyl)pyrrolidin-3-yl)ethyl) benzonitrile] | > 50 | 
